Results as given in ChEMBL document CHEMBL5143615, “Novel 2-aryl-4-aryloxyquinoline-based fungistatics for Mucor circinelloides. Biological evaluation of activity, QSAR and docking study” (Bioorg Med Chem Lett, 2022).

The compounds below were run on Mucor circinelloides (assay: Antifungal activity against Mucor circinelloides R7B wild type strain assessed as reduction in spore germination at 100 ug/ml relative to control). Settings: dose 100 µg/ml.
Type: functional
Set-up: scale not given: the % may be the effect or the level left
Work on `Clc1cccc(-c2cc(Oc3ccccc3)c3ccccc3n2)c1` yielded an Activity of 89.1%. With `Clc1ccc(-c2cc(Oc3ccccc3)c3ccccc3n2)cc1Cl` the Activity was 60.8%.

Each compound was assayed on Mucor circinelloides (assay: Antifungal activity against Mucor circinelloides M5 strain assessed as reduction in spore germination at 100 ug/ml relative to control). Settings: dose 100 µg/ml.
Type: functional
Set-up: scale not given: the % may be the effect or the level left
In the case of `Clc1cccc(-c2cc(Oc3ccccc3)c3ccccc3n2)c1`, the Activity was 85.6%. `Clc1ccc(-c2cc(Oc3ccccc3)c3ccccc3n2)cc1Cl` was tested, and the Activity was 57.8%.
